Ends that are not written are not given here.
Experiments:
Format in all cases: biochemical
PKBa[Ser473Asp] = molecular target: T1, PKBa[Ser473Asp] (Homo sapiens, UniProt P31749, S473D); test: AGC kinase panel activity assay (Crosstide)
T1 construct: made in house; host or cells: HEK293
Description: (§1) Protein kinase activity tests were performed essentially as previously described (Balendran et al., 2000; Biondi et al., 2000; Biondi et al., 2001). Substrates used were either MBP (for PKCζ or polypeptides (Crosstide for PKB, S6K, SGK and PRK2; T308tide for PDK1, and Kemptide for PKA). PKA (Sigma) was measured in the presence of 100 μM cAMP. Alternatively, assays were performed in a 96 well format, aliquots spotted on p81 phosphocellulose papers (Whatmann), washed in 0.01% phosphoric acid, dried, and then exposed and analysed using Phospholmager technology (Storm, Molecular Dynamics). Activity measurements were performed in duplicates with less than 10% difference between duplicate pairs. Experiments were repeated at least twice, although most of the experiments were repeated multiple times, with similar results.
(§2) Activity assays for each kinase were performed as described in Materials and Methods in the presence of 1% DMSO (100%). Except PKA, all protein kinases were produced as a GST-fusion. S6K1, PKBα, SGK mutants used were S6K1-T2-[Thr412Glu], PKBa[Ser473Asp] and ΔN-SGK[Ser422Asp].

PRK2 = molecular target: T2, PRK2 (Homo sapiens, UniProt Q16513); test: AGC kinase panel activity assay (Crosstide); details: for PRK2 (%) activity: 1% DMSO = 100%
T2 construct: made in house; host or cells: HEK293
Description: as §1, §2

S6K1-T2-[Thr412Glu] = molecular target: T3, S6K1-T2-[Thr412Glu] (Homo sapiens, UniProt P23443, T412E); test: AGC kinase panel activity assay (Crosstide); details: for S6K1 (%) activity: 1% DMSO = 100%
T3 construct: made in house; host or cells: HEK293
Description: as §1, §2

ΔN-SGK[Ser422Asp] = molecular target: T4, ΔN-SGK[Ser422Asp] (Homo sapiens, UniProt O00141, S422D); test: AGC kinase panel activity assay (Crosstide); details: for SGK1 (%) activity: 1% DMSO = 100%
T4 construct: made in house; host or cells: HEK293
T4 sequence (O00141 61-431 S422D limits assumed): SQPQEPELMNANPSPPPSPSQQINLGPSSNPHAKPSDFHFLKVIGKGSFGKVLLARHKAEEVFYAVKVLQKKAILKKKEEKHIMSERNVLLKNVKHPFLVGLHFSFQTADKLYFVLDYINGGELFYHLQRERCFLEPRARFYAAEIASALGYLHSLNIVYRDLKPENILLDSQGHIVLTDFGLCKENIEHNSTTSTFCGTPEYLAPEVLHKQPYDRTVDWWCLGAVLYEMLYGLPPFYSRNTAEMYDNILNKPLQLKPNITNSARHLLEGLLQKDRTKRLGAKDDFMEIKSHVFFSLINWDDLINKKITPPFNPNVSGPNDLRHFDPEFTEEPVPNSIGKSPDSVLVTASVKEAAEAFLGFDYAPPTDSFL
Description: as §1, §2

PDK1 [Phe224Trp] = molecular target: T5, PDK1 [Phe224Trp] (Homo sapiens, UniProt O15530, F224W); test: PDK1 activity assay with T308tide; details: catalytic domain 50-360
T5 construct: the catalytic domain of PDK1 (50-359) produced in SF9 insect cells; His-tag (N, cleaved yes); made in house; host or cells: insect cells (baculovirus)
Description: (§3) FIG. 6—A mutation at Thr226 in PDK1 uncouples the ligand binding to the HM/PIF-pocket from activation of the kinase. The catalytic domain (CD) of PDK1 50-360 and its mutants Phe224Trp and Thr226Trp were expressed in insect cells and purified. (A) PDK1 activity was measured in the presence or absence of the HM-polypeptide PIFtide or compound 1 using T308tide as a substrate. PDK1 CD wt and PDK1 [Phe224Trp] were activated by PIFtide and compound 1 whereas PDK1 CD [Thr226Trp] mutant was not activated. (B,C,D,E) PDK1 [Phe224Trp] and PDK1 [Thr226Trp] retain significant binding to P-HM polypeptides and PIFtide. Surface plasmon resonance measurements were carried out on a BiaCore system to evaluate the binding affinities of PDK1 CD wt, PDK1 [Phe224Trp] and PDK1 [Thr226Trp] to HM-polypeptides. Biotin-P-HM-polypeptide derived from S6K1 was immobilized on a streptavidin-coated sensor chip and the specific interaction with PDK1 was recorded. (B) The direct binding of PDK1 CD wt to biotin-P-HM-S6K was recorded at the indicated concentrations of PDK1 CD. The Kd (0.05 μM) was estimated based on the response units obtained at each concentration at equilibrium (insert).
as §1
(§4) PDK1 activity assay was performed in a 20 μl mix containing 50 mM Tris-HCl pH 7.5, 0.05 mg/ml BSA, 0.1% β-mercaptoethanol, 10 mM MgCl2, 100 μM [γ^32P]ATP (5-50 cpm/pmol), 0.003% Brij, 150 ng PDK1, and T308tide (from 0.05 to 1 mM). PDK1 specific activity was approximately 5 U/mg (when measured at 1 mM T308tide). The effect of small compounds on PDK1 was repeated with proteins from different purification batches and with different protein constructs, comprising the full length protein or the catalytic domain alone, with similar results. […] This variability may be due to the PIFtide/compound-stimulated autophosphorylation of the activation loop in certain preparations having less than a 1:1 molar phosphorylation stoichiometry at this site.

PDK1 [Thr226Trp] = molecular target: T6, PDK1 [Thr226Trp] (Homo sapiens, UniProt O15530, T226W); test: PDK1 activity assay with T308tide; details: catalytic domain 50-360
T6 construct: the catalytic domain of PDK1 (50-359) produced in SF9 insect cells; His-tag (N, cleaved yes); made in house; host or cells: insect cells (baculovirus)
Description: as §3, §1, §4

T2 sequence (Q16513 501-984): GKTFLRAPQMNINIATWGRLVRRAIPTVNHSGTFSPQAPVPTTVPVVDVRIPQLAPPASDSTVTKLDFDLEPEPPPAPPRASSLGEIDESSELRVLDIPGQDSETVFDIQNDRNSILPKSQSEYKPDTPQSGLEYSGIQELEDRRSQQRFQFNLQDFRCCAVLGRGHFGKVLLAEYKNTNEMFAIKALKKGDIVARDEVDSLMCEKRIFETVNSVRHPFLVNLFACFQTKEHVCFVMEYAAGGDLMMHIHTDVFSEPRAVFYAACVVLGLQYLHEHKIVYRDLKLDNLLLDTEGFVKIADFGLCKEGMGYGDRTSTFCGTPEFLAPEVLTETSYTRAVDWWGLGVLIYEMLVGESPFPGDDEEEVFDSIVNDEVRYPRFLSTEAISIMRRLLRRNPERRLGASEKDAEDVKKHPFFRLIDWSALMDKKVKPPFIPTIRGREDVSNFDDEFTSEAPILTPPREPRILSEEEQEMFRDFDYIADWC
T1 sequence (P31749 whole entry S473D): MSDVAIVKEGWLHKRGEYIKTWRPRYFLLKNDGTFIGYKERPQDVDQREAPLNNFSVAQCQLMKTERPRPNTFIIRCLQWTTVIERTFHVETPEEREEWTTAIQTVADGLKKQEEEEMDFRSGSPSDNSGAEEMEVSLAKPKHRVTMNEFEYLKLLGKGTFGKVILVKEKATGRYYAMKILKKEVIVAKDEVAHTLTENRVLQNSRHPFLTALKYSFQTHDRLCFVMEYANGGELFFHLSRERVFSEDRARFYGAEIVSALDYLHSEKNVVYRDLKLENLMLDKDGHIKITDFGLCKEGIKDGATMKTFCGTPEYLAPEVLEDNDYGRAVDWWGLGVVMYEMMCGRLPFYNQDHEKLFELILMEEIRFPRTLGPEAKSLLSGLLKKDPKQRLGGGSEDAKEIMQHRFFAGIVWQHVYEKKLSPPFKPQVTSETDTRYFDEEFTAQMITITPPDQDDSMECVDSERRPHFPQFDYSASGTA
T3 sequence (P23443 1-421 T412E limits assumed): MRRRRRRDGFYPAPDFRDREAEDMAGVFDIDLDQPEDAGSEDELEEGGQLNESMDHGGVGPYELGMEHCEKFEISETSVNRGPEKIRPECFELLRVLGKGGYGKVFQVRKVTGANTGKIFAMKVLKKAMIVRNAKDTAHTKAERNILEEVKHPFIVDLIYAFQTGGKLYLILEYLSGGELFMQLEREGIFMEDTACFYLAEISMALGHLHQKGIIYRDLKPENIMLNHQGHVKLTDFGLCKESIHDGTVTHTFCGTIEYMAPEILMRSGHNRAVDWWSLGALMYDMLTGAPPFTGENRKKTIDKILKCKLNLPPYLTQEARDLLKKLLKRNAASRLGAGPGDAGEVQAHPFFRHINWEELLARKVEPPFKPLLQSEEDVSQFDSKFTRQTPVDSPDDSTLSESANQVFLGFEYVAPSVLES
T6 sequence (O15530 50-359 T226W): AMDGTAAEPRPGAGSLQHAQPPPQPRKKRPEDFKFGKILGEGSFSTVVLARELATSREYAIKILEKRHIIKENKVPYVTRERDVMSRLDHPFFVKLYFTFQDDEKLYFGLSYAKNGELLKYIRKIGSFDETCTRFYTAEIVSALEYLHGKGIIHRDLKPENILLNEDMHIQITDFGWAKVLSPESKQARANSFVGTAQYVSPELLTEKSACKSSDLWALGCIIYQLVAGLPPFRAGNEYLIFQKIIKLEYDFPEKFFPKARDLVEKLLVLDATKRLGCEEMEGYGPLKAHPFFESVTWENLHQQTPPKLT
T5 sequence (O15530 50-359 F224W): as the sequence (O15530 50-359 T226W) above, with F175W, W177T counted along it

Row | Compound | effect on PKBa/AKT1 activity (in words) (PKBa[Ser473Asp]; 20 μM) | activity at 20 µM (PKBa[Ser473Asp]; 20 μM compound, 1% DMSO = 100%, read-out: PKBα (%) activity) | activity at 200 µM (PKBa[Ser473Asp]; 200 μM compound, 1% DMSO = 100%, read-out: PKBα (%) activity) | effect on PRK2 activity (in words) (PRK2; 20 μM) | PRK2 (%) activity (PRK2; 20 μM compound) | PRK2 (%) activity (PRK2; 200 μM compound) | effect on S6K activity (in words) (S6K1-T2-[Thr412Glu]; 20 μM) | S6K1 (%) activity (S6K1-T2-[Thr412Glu]; 20 μM compound) | S6K1 (%) activity (S6K1-T2-[Thr412Glu]; 200 μM compound) | effect on SGK1 activity (in words) (ΔN-SGK[Ser422Asp]; 20 μM) | SGK1 (%) activity (ΔN-SGK[Ser422Asp]; 20 μM compound) | SGK1 (%) activity (ΔN-SGK[Ser422Asp]; 200 μM compound) | activation of PDK1 [Phe224Trp] (in words) (PDK1 [Phe224Trp]) | activation of PDK1 [Thr226Trp] (in words) (PDK1 [Thr226Trp]) | PKBα (%) activity (PKBa[Ser473Asp]; 20 μM compound, 1% DMSO = 100%) | PKBα (%) activity (PKBa[Ser473Asp]; 200 μM compound, 1% DMSO = 100%)
1 | O=C(O)CSC(CC(=O)c1ccc(Cl)cc1)c1ccccc1 (stereo not drawn) [Compound 1] | no significant effect | 89% | 85% | no significant effect | 103% | 110% | no significant effect | 109% | 110% | no significant effect | 97% | 61% | activated | not activated | – | –
2 | COC(=O)CSC(CC(=O)c1ccc(Cl)cc1)c1ccccc1 (stereo not drawn) [Compound 2] | – | – | – | – | 106% | 89% | – | 109% | 120% | – | 89% | 92% | – | – | 92% | 106%
3 | REPRILSEEEQEMFRDFDYIADWC [PIFtide, reference compound] | – | – | – | – | – | – | – | – | – | – | – | – | activated | not activated | – | –

— patent publication US20110152166A1, “METHOD OF MODULATION OF PROTEIN PHOSPHORYLATION-DEPENDENT CONFORMATIONAL TRANSITIONS WITH LOW MOLECULAR WEIGHT COMPOUNDS” (priority 2006, published 2011)
